From publication PMC8123576 (International Journal of Molecular Sciences, 2021) come the findings set out here.

For assay [1], the system named is A. flavus. The experiment in a line: microbe, parasite or virus in culture. The assay is classed as cell-based, Aspergillus flavus.
Assay [2] deals with aflatoxin accumulation by A. flavus. The experiment in a line: microbe, parasite or virus in culture. The assay is classed as cell-based, Aspergillus flavus.
[3] abbreviates: Aspergillus flavus, 100 µM, read-out: G.I. (%) (A. flavus growth inhibition).

As to “Ni(II) Cinnamaldehyde bisthiosemicarbazonate”, the “G.I. (%) (A. flavus growth inhibition)” value in assay [1] (50 µM) is 87,9%; in assay [1] (100 µM) it was 100%. Besides, the “A.I. (%) (aflatoxin accumulation inhibition)” value was 95,0% in assay [2] (50 µM) and 100% in assay [2] (100 µM).

Consider “Zn(II) 1‐isopropylbenzaldehyde bis thiosemicarbazone diacetate”, for which the “A.I. (%) (aflatoxin accumulation inhibition)” value in assay [2] (50 µM) is listed as 69,3%; in assay [2] (100 µM) it was 81,9%.

In the case of `NC(=S)NN=CCCc1ccccc1` [3‐Phenylpropanal thiosemicarbazone], the results for the “G.I. (%) (A. flavus growth inhibition)” value in assay [1] (50 µM) and in assay [1] (100 µM) were 100% and 107,0%, respectively.

Take “Cu(II) 1‐(3‐methoxyphenyl)heptan‐1‐one bisthiosemicarbazonate”: the “A.I. (%) (aflatoxin accumulation inhibition)” value in assay [2] (50 µM) is listed as 82,5%; in assay [2] (100 µM) it was 95,2%.

Regarding `CCCCCCCCCC=NNC(N)=S` [Decanal thiosemicarbazone], the “G.I. (%) (A. flavus growth inhibition)” value in assay [1] (50 µM) and in assay [1] (100 µM) was 96,0% throughout. Further, the “A.I. (%) (aflatoxin accumulation inhibition)” value in assay [2] (100 µM) was 62,0%.

For the molecule “Cu(II) 3,4,5‐trimethoxybenzaldehyde bisthiosemicarbazonate”, the “G.I. (%) (A. flavus growth inhibition)” value in assay [1] (100 µM) is 54,0%. The “A.I. (%) (aflatoxin accumulation inhibition)” value in assay [2] (100 µM) is reported as 76,0%.

In the case of Bisvanillin thiosemicarbazone, the “G.I. (%) (A. flavus growth inhibition)” value in assay [1] (100 µM) is recorded as 57,0%. The “A.I. (%) (aflatoxin accumulation inhibition)” value in assay [2] (100 µM) was 61,0%.

With Cu(II) nonanal bisthiosemicarbazonate, the “G.I. (%) (A. flavus growth inhibition)” value in assay [1] (100 µM) is 84,1%. In addition, the “A.I. (%) (aflatoxin accumulation inhibition)” value in assay [2] (50 µM) is 90,0%; in assay [2] (100 µM), 100%.

With Cu(II)undecanal bisthiosemicarbazonate, the figures for the “G.I. (%) (A. flavus growth inhibition)” value in assay [1] (50 µM) and in assay [1] (100 µM) were 60,4% and 94,0%, respectively. Besides, the results for the “A.I. (%) (aflatoxin accumulation inhibition)” value in assay [2] (50 µM) and in assay [2] (100 µM) were 84,8% and 96,0%, respectively.

Broadly, the inhibition is the relative decrease from the control value, in per cent. `NC(=S)NN=C(c1ccccc1)c1ccccc1` [Benzophenone thiosemicarbazone]: in assay [1] (setting [3]), the inhibition at 100 µM is 53%.

Turning to `C=C(C)C1CC=C(C=NNC(N)=S)CC1` (stereo not drawn) [Perillaldehyde thiosemicarbazone], the “G.I. (%) (A. flavus growth inhibition)” value in assay [1] (100 µM) is listed as 73,5%. Besides, the “A.I. (%) (aflatoxin accumulation inhibition)” value is given as 78,0% in assay [2] (50 µM) and 87,3% in assay [2] (100 µM).

With “Zn(II) Cuminaldehyde bisthiosemicarbazonate”, the figures for the “G.I. (%) (A. flavus growth inhibition)” value in assay [1] (50 µM) and in assay [1] (100 µM) were 56,0% and 60,3%, respectively. For the same molecule, the “A.I. (%) (aflatoxin accumulation inhibition)” value in assay [2] (50 µM) is on record as 97,1%; in assay [2] (100 µM), 100%.

Take “Cu(II) cinnamaldehyde bisthiosemicarbazonate”: the “G.I. (%) (A. flavus growth inhibition)” value in assay [1] (50 µM) was 58,0%.

Regarding `CCC=CCC1=C(C)CCC1=NNC(N)=S` [Jasmone thiosemicarbazone], the “A.I. (%) (aflatoxin accumulation inhibition)” value is listed as 88,0% in assay [2] (50 µM) and 90,0% in assay [2] (100 µM).

Turning to `CCCCCCCC=NNC(N)=S` [Octanal thiosemicarbazone], the “G.I. (%) (A. flavus growth inhibition)” value is 82,0% in assay [1] (50 µM) and 93,0% in assay [1] (100 µM). The “A.I. (%) (aflatoxin accumulation inhibition)” value in assay [2] (50 µM) is recorded as 76,0%; in assay [2] (100 µM) it was 96,0%.

In the case of `CCCCCCCCCCC=NNC(N)=S` [Undecanal thiosemicarbazone], the “G.I. (%) (A. flavus growth inhibition)” value in assay [1] (50 µM) was 78,0%; in assay [1] (100 µM) it was 62,0%. For the same molecule, the “A.I. (%) (aflatoxin accumulation inhibition)” value in assay [2] (50 µM) is listed as 72,0%; in assay [2] (100 µM) it was 93,0%.

With “Zn(II) 2‐isopropylbenzaldehyde bisthiosemicarbazonate”, the “A.I. (%) (aflatoxin accumulation inhibition)” value in assay [2] (50 µM) is reported as 93,8%; in assay [2] (100 µM), 100%.

As to `CCCCCCCCC=NNC(N)=S` [Nonanal thiosemicarbazone], the “G.I. (%) (A. flavus growth inhibition)” value was 95,0% in assay [1] (50 µM) and 100% in assay [1] (100 µM). In addition, the “A.I. (%) (aflatoxin accumulation inhibition)” value in assay [2] (50 µM) is given as 91,0%; in assay [2] (100 µM) it was 100%.

“Zn(II) 1‐isopropylbenzaldehyde bisthiosemicarbazonate”: the “A.I. (%) (aflatoxin accumulation inhibition)” value in assay [2] (50 µM) was 55,3%; in assay [2] (100 µM) it was 100%.

As for “Cu(II) benzaldehyde 4,4'‐dimethyl thiosemicarbazonate”, in assay [2] (100 µM), the “A.I. (%) (aflatoxin accumulation inhibition)” value was 67,0%.

As for “Cu(II) 2,3,4‐trimethoxybenzaldehyde bisthiosemicarbazonate”, the “G.I. (%) (A. flavus growth inhibition)” value in assay [1] (50 µM) is given as 55,0%.

Take `CC12CCC(C(=NNC(N)=S)C1=NNC(N)=S)C2(C)C` (stereo not drawn) [Camphorquinone bis thiosemicarbazone]: in assay [1] (100 µM), the “G.I. (%) (A. flavus growth inhibition)” value was 58,0%.

In the case of `CCC(/C=C/c1ccc(OC)cc1)=NNC(N)=S` [(E)‐1‐(4‐methoxyphenyl)‐1‐pentene‐3‐one‐3‐thiosemicarbazone], the entries for the “G.I. (%) (A. flavus growth inhibition)” value in assay [1] (50 µM) and in assay [1] (100 µM) were 62,0% and 74,0%, respectively.

For the molecule “Cu(II) 2,4‐decadienal bisthiosemicarbazonate”, the figures for the “G.I. (%) (A. flavus growth inhibition)” value in assay [1] (50 µM) and in assay [1] (100 µM) were 91,0% and 80,0%, respectively.

For the molecule `O=C1c2ccccc2C(=O)c2cc(CO)ccc21` [2‐hydroxymethyl‐anthraquinone], the “G.I. (%) (A. flavus growth inhibition)” value in assay [1] (100 µM) is 62,0%.

Take “Cu(II) 2‐isopropylbenzaldehyde bisthiosemicarbazonate”: the “A.I. (%) (aflatoxin accumulation inhibition)” value in assay [2] (50 µM) is recorded as 65,9%; in assay [2] (100 µM), 80,8%.

`CC(C)=CCC/C(C)=C/C=N/NC(N)=S` [Citral thiosemicarbazone]: the “G.I. (%) (A. flavus growth inhibition)” value in assay [1] (100 µM) was 57,0%.

Regarding Cu(II) heptanal bisthiosemicarbazonate, the “A.I. (%) (aflatoxin accumulation inhibition)” value in assay [2] (50 µM) was 62,8%; in assay [2] (100 µM) it was 85,5%.

`CC(=O)c1ccco1` [2-acetyl-furan]: in assay [2], the “activity of parent compounds on aflatoxin biosynthesis” value was “fundamentally inactive”.

Take “Cu(II) 3‐phenylpropanal bisthiosemicarbazonate”: the “G.I. (%) (A. flavus growth inhibition)” value was 69,0% in assay [1] (50 µM) and 68,0% in assay [1] (100 µM).

For `CC(=O)c1cccs1` [2-acetyl-thiophene], the “activity of parent compounds on aflatoxin biosynthesis” value in assay [2] is “fundamentally inactive”.

Turning to “Cu(I) chloroaqua flavone thiosemicarbazone”, the “G.I. (%) (A. flavus growth inhibition)” value is given as 60,0% in assay [1] (50 µM) and 79,0% in assay [1] (100 µM).

As to “Cu(II) Dihydrojasmone bisthiosemicarbazonate”, the “A.I. (%) (aflatoxin accumulation inhibition)” value in assay [2] (50 µM) is on record as 66,0%; in assay [2] (100 µM), 80,0%.

Consider “Zn(II) (E)‐1‐(4‐methoxyphenyl)‐1‐pentene‐3‐one‐bis 3‐thiosemicarbazonate”, for which the figures for the “G.I. (%) (A. flavus growth inhibition)” value in assay [1] (50 µM) and in assay [1] (100 µM) were 86,0% and 89,0%, respectively.

As to `Cc1ccc(S(=O)(=O)OCc2ccc3c(c2)C(=O)c2ccccc2C3=O)cc1` [Tosylate ‐2‐methyleneanthraquinone], the “G.I. (%) (A. flavus growth inhibition)” value in assay [1] (50 µM) was 66,0%; in assay [1] (100 µM), 87,0%.

Regarding “Cu(II) 4,7'‐dihydroxyflavone bisthiosemicarbazonate”, the “G.I. (%) (A. flavus growth inhibition)” value in assay [1] (50 µM) and in assay [1] (100 µM) was 100% each time.

Take `CC(C)c1ccccc1C=NNC(N)=S` [2‐isopropylbenzaldehyde thiosemicarbazone]: the “A.I. (%) (aflatoxin accumulation inhibition)” value in assay [2] (50 µM) is 67,0%; in assay [2] (100 µM), 97,0%.

For `NC(=S)NN=C1CCCCC1` [Cyclohexanone thiosemicarbazone], the “G.I. (%) (A. flavus growth inhibition)” value in assay [1] (50 µM) is given as 80,0%; in assay [1] (100 µM), 95,0%.

On to `CCCCCC=CC=NNC(N)=S` [2‐Octenal thiosemicarbazone], for which the “G.I. (%) (A. flavus growth inhibition)” value in assay [1] (50 µM) is reported as 93,0%; in assay [1] (100 µM) it was 96,0%.

Take `O=c1cc(-c2ccccc2)oc2ccccc12` [Flavone]: the inhibition at 50 µM in assay [1] (Aspergillus flavus, 50 µM, read-out: G.I. (%) (A. flavus growth inhibition)) is 66%. The inhibition at 100 µM in assay [1] (setting [3]) came to 83%.

Take `CN(C)C(=S)NN=CC=Cc1ccccc1.CN(C)C(=S)NN=CC=Cc1ccccc1.[Zn+2]` [Zn(II) Cinnamaldehyde bis 4,4‐dimethyl thiosemicarbazonate]: the “A.I. (%) (aflatoxin accumulation inhibition)” value is listed as 75,0% in assay [2] (50 µM) and 100% in assay [2] (100 µM).

In the case of “Ni(II) perillaldehyde bisthiosemicarbazonate”, the “A.I. (%) (aflatoxin accumulation inhibition)” value was 85,2% in assay [2] (50 µM) and 90,1% in assay [2] (100 µM).

In the case of `CCCCCC1=C(C)CCC1=NNC(N)=S` [Dihydrojasmone thiosemicarbazone], the “A.I. (%) (aflatoxin accumulation inhibition)” value in assay [2] (50 µM) is recorded as 51,5%; in assay [2] (100 µM) it was 63,2%.

For “Cu(II) 1‐isopropylbenzaldehyde bisthiosemicarbazonate”, the “A.I. (%) (aflatoxin accumulation inhibition)” value in assay [2] (100 µM) is given as 73,5%.

Regarding Dicyclohexanone thiosemicarbazone, the “G.I. (%) (A. flavus growth inhibition)” value is recorded as 90,0% in assay [1] (50 µM) and 99,00% in assay [1] (100 µM).

Regarding Acetylthiophene bisthiosemicarbazone, the “G.I. (%) (A. flavus growth inhibition)” value in assay [1] (100 µM) is 65,0%.

Consider “Cu(II) Camphorquinone bisthiosemicarbazonate”, for which the “A.I. (%) (aflatoxin accumulation inhibition)” value in assay [2] (100 µM) is on record as 53,0%.

As to “Cu(II) 3,4‐dimethoxybenzaldehyde bis 4,4'‐dimethyl thiosemicarbazonate”, the “A.I. (%) (aflatoxin accumulation inhibition)” value in assay [2] (50 µM) is listed as 61,4%; in assay [2] (100 µM) it was 84,6%.

For `NC(=S)NN=c1cc(-c2ccccc2)oc2ccccc12` [Flavone thiosemicarbazone], the “G.I. (%) (A. flavus growth inhibition)” value in assay [1] (50 µM) and in assay [1] (100 µM) was 100% throughout.

For the molecule `NC(=S)NN=Cc1cccc(O)c1O` [2,3‐dihydroxybenzaldehyde thiosemicarbazone], the “G.I. (%) (A. flavus growth inhibition)” value in assay [1] (50 µM) was 53,0%.
